In the NIST ThermoML archive (doi:10.1021/je060486k):

Assay: cn = amount concentration of the nth substance listed, in mol/dm3
Details: 298.15 K; for surface tension liquid-gas: Wilhelmy plate method; for kinematic viscosity / mass density / speed of sound: 101 kPa, Liquid; for kinematic viscosity: Capillary tube (Ostwald / Ubbelohde) method

CCCCCCCCCC[N+](C)(C)C.[Br-] [N,N,N-trimethyl-1-decanaminium bromide] + O
Details	kinematic viscosity [m2/s]	mass density [kg/m3]	speed of sound [m/s]	surface tension liquid-gas [mN/m]
c1 = 0.001	8.975e-07	997.11	1497.3	65.4
c1 = 0.005	8.99e-07	997.25	1497.8	60.1
c1 = 0.01	9.048e-07	997.37	1498.7	57.6
c1 = 0.02	9.14e-07	997.58	1500.8	49.7
c1 = 0.03	9.224e-07	997.85	1502.6	43.4
c1 = 0.04	9.35e-07	998.06	1504.3	38
c1 = 0.05	9.449e-07	998.33	1506.3	36.9
c1 = 0.06	9.56e-07	998.52	1508	36.1
c1 = 0.07	9.642e-07	998.79	1509.2	35.5
c1 = 0.08	9.78e-07	999	1509.7	35.2
c1 = 0.1	1.002e-06	999.37	1510.1	35.2
c1 = 0.12	1.024e-06	999.77	1510.6	35
c1 = 0.15	1.062e-06	1000.4	1511.1	35.2
c1 = 0.2	1.117e-06	1001.22	1511.7	35
c1 = 0.25	1.181e-06	1002.09	1512.4	35.1

CCCCCC[N+](C)(C)C.[Br-] [hexyltrimethylammonium bromide] + O
Details	kinematic viscosity [m2/s]	mass density [kg/m3]	speed of sound [m/s]	surface tension liquid-gas [mN/m]
c1 = 0.1	9.149e-07	1000.32	1510.6	51.6
c1 = 0.2	9.406e-07	1003.85	1524.9	44.3
c1 = 0.3	9.727e-07	1006.97	1537.3	41.1
c1 = 0.4	1.011e-06	1010.42	1550.5	38.3
c1 = 0.45	1.033e-06	1012.06	1557.7	36.8
c1 = 0.5	1.056e-06	1013.74	1562.9	35.8
c1 = 0.6	1.108e-06	1017.19	1575.3	34
c1 = 0.7	1.166e-06	1021.02	1588.6	32.5
c1 = 0.8	1.23e-06	1024.21	1599.1	31.2
c1 = 0.9	1.301e-06	1027.68	1610	30.5
c1 = 1	1.379e-06	1031.33	1620.6	29.9
c1 = 1.1	1.463e-06	1034.12	1628.1	29.5
c1 = 1.3	1.65e-06	1041.07	1644.8	29.3
c1 = 1.5	1.863e-06	1047.62	1652.1	29.1
c1 = 1.7	2.101e-06	1054.38	1660	29.1
c1 = 2	2.508e-06	1064.23	1670.3	28.9
